One test concerns the target T1, WT LRRK2 (Mus musculus, UniProt Q5S006).
T1 construct: endogenous in cells; host or cells: wild-type primary MEFs
Nature of the test: LRRK2 degradation in WT MEFs by Western blotting. The test is classed as cell-based. The procedure:
(§1) These PROTACs were then biologically evaluated in mouse embryonic fibroblasts (MEFs) by Western blotting. Briefly, MEFs were treated with compounds at 33 nM and 1 μM for 4 h (Figure 2) and 24 h (Figure S2) separately, and the intracellular level of LRRK2, phosphorylated LRRK2 at Ser935, and phosphorylated Rab10 (pRab10) at Thr73 was determined. Rab10[5],[49] is one of the bona fide substrates of LRRK2, whose phosphorylation status is directly affected by the LRRK2 kinase activity and protein level. Phosphorylation of LRRK2 at Ser935 is a well-studied biomarker site used to assess the efficacy of type 1 LRRK2 inhibitors.[30]
(§2) Primary MEFs were generated as described in a previous study.[80] Briefly, the uterine horn was collected from adult female mice at day E12.5 and transferred to a 10 cm tissue culture dish containing cold PBS. Two forceps were used to tear the yolk sacs to isolate each embryo. Forceps were cleaned thoroughly with 70% ethanol between each embryo isolation. The embryos were culled, and a tissue piece was collected in a polymerase chain reaction (PCR) tube for genotyping. The red tissue of the embryo was removed, and the remainder was minced with a scalpel blade and incubated with a 7.5 mL trypsin–ethylenediaminetetraacetic acid (EDTA) solution for 10 min in a 37 °C, 5% CO2 tissue culture incubator. The dish was removed from the incubator and checked under a light microscope for single cells. Complete media (7.5 mL) was added to the trypsinized cells, and the cell suspension was transferred to a 15 mL Falcon tube and centrifuged at 1200 rpm for 5 min at room temperature. The trypsin was aspirated, the cell pellet was resuspended in a 5 mL fresh complete media, and the cell suspension was plated in a 60 mm tissue culture dish and incubated in a 37 °C, 5% CO2 tissue culture incubator. The MEFs at this stage were considered as passage 0 and were passaged and expanded for experimental use once the genotype was confirmed by allelic sequencing and immunoblotting. MEFs were cultured in Dulbecco’s modified Eagle’s medium (DMEM) containing 10% (v/v) fetal bovine serum (FBS), 2 mM L-glutamine, 100 U/mL penicillin, and 100 μg/mL streptomycin supplemented with 1× nonessential amino acids and 1 mM sodium pyruvate.
(§3) Culturing and passaging of adherent cell lines were carried out using an aseptic technique in CL1 or CL2 (for PBMC isolation) biological safety cabinets. All cells were incubated in a 37 °C incubator with 5% CO2. Cell lines were regularly tested for mycoplasma contamination. For Western blot assay, the cells were seeded in six-well plates. For immunoprecipitation of LRRK2, SH-SY5Y cells (cultured in DMEM-F12, supplemented with 15% (v/v) FBS, 100 U/mL penicillin and 100 μg/mL streptomycin, 1× nonessential amino acids, and 1 mM sodium pyruvate) were seeded in a 10 cm dish. All cells were treated with the indicated compounds such that the final concentration of DMSO was 0.1%. Following the treatment of cells with compounds at indicated concentrations and time periods, the media was removed and the cells were washed with PBS and lysed in a 100 μL ice-cold complete lysis buffer containing 50 mM tris–HCl pH 7.4, 1 mM EGTA, 10 mM 2-glycerophosphate, 50 mM sodium fluoride, 5 mM sodium pyrophosphate, 270 mM sucrose, supplemented with 1 μg/mL microcystin-LR, 1 mM sodium orthovanadate, complete EDTA-free protease inhibitor cocktail (Roche), and 1% (v/v) Triton X-100. The cells were immediately placed on ice and were scraped and collected into 1.5 mL Eppendorf tubes. Cell lysates were incubated on ice for 10 min prior to centrifugation at 15 000g at 4 °C for 15 min.

The test system of test [1] is Rab10-pThr73. As to the kind of experiment: Rab10 dephosphorylation in G2019S LRRK2 MEFs by Western blotting. The test is classed as cell-based, mouse. The procedure:
as §1, §2, §3

The next test addresses T2, G2019S LRRK2 (Mus musculus, UniProt Q5S006, G2019S).
T2 construct: endogenous in cells; host or cells: G2019S LRRK2 MEFs
As to the kind of experiment: LRRK2 degradation in G2019S LRRK2 MEFs by Western blotting. The test is classed as cell-based. The following applies: for Dmax: dose-dependent degradation. The procedure:
as §1, §2, §3

In test [2] the test system is Rab10-pThr73. As to the kind of experiment: Rab10 dephosphorylation in WT MEFs by Western blotting. The test is classed as cell-based, mouse. The procedure:
as §1, §2, §3

The mark [3] stands for this setting: Mus musculus, 4 h, G2019S LRRK2 MEFs, read-out: EC50 G2019S pRab10.

Like-named read-outs stand apart in the source and are kept apart here.

T1 sequence (Q5S006 whole entry): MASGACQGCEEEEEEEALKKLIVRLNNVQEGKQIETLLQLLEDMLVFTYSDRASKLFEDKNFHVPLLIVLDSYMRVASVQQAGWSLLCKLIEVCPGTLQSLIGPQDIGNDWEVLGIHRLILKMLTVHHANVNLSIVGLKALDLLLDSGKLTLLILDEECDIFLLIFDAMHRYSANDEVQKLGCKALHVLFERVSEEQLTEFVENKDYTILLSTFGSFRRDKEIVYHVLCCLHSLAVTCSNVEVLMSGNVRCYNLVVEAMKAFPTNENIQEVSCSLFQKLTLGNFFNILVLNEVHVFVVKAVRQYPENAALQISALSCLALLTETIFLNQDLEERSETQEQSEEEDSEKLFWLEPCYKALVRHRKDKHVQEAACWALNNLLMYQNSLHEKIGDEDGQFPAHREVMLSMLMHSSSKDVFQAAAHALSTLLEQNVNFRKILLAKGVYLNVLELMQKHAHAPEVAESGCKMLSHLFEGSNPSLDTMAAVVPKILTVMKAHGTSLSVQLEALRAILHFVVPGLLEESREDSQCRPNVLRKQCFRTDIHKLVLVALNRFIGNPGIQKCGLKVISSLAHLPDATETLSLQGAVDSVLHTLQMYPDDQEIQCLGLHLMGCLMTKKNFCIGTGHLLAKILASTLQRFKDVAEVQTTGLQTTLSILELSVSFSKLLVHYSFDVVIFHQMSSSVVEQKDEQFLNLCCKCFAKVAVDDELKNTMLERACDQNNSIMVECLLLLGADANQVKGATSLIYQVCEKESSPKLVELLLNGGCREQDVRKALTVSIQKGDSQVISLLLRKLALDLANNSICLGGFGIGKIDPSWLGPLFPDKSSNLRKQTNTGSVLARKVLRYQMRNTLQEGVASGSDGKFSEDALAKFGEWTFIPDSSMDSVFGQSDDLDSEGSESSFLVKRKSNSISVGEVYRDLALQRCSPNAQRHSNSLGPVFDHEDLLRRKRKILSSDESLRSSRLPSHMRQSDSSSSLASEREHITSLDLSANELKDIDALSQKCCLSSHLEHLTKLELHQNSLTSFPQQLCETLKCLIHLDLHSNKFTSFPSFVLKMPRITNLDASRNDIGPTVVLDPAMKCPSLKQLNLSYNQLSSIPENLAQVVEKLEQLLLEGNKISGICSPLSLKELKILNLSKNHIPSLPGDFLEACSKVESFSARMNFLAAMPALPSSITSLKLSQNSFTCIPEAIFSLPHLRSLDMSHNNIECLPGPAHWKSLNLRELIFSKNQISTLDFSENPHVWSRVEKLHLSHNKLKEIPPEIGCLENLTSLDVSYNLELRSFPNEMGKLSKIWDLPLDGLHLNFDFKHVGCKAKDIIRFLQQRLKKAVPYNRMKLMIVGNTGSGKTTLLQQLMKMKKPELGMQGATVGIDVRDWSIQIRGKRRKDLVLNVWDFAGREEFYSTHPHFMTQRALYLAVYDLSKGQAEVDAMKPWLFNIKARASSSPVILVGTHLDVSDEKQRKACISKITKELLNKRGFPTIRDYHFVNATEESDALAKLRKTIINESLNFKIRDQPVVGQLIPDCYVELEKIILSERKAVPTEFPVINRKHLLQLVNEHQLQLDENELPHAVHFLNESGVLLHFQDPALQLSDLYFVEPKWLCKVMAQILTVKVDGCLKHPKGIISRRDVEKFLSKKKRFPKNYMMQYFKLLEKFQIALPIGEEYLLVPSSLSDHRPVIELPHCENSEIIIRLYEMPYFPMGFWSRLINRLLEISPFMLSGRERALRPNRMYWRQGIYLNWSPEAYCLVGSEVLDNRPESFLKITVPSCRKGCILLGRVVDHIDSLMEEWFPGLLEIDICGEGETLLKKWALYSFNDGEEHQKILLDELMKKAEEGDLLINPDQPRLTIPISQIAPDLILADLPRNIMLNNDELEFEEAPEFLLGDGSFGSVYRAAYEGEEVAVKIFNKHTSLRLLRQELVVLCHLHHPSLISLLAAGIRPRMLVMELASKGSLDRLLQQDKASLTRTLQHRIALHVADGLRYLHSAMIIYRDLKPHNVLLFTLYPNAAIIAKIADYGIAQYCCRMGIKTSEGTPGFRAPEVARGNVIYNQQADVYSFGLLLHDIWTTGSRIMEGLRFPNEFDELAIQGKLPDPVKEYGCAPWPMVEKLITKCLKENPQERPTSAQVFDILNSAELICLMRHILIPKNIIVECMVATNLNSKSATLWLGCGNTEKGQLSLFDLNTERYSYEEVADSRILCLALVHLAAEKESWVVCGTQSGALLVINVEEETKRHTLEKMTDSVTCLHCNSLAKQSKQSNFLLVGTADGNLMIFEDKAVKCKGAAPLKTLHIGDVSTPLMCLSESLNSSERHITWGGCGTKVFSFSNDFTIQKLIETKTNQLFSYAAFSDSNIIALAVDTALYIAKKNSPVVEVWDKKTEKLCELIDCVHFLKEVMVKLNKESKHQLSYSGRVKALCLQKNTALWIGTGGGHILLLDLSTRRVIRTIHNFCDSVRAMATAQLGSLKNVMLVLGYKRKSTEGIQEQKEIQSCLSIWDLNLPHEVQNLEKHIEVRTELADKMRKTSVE
T2 sequence (Q5S006 whole entry G2019S): as the sequence (Q5S006 whole entry) above, with G2019S counted along it

On to `CNc1nc(Nc2ccc(C(=O)N3CCN(CCOCCOCCSC(C)(C)[C@H](NC(=O)C4(F)CC4)C(=O)N4C[C@H](O)C[C@H]4C(=O)NCc4ccc(-c5scnc5C)cc4)CC3)cc2OC)ncc1Cl` [SD75], for which the Dmax at 1 µM at WT LRRK2 (1 μM (1000 nM), read-out: Dmax (WT LRRK2), time-dependent degradation) is 52%; at G2019S LRRK2 (1 μM (1000 nM), read-out: Dmax (G2019S LRRK2), time-dependent degradation), 81%. For the same molecule, the Dmax on WT LRRK2 (dose-dependent degradation, 24 h) was 51%; on G2019S LRRK2 (24 h, read-out: Dmax,24h (G2019S LRRK2)), 58%. Further, the “GS-pRab10 percent label at the end of the time curve” value with Rab10-pThr73 [1] (1 µM) was found to be 74%. In the test on Rab10-pThr73 [1] (1 µM), the pRab10 dephosphorylated was 75–90%. Moreover, the concentration giving a half-maximal response (EC50) was 379 nM in the test on Rab10-pThr73 [1] (Mus musculus, 24 h, G2019S LRRK2 MEFs, read-out: EC50 for the dephosphorylation of Rab10 (GS-pRab10)) and 2270 nM in the test with Rab10-pThr73 [2] (Mus musculus, 24 h, WT MEFs, read-out: EC50 for the dephosphorylation of Rab10 (WT-pRab10)). For the same molecule, the “WT-pRab10 percent label at the end of the time curve” value (“WT-pRab10 percent label at the end” for short) in the test on Rab10-pThr73 [2] (1 µM) was 41%.
Consider `CNc1nc(Nc2ccc(C(=O)N3CCN(C[C@H]4CC[C@H](CSC(C)(C)[C@H](NC(=O)C5(F)CC5)C(=O)N5C[C@H](O)CC5C(=O)NCc5ccc(-c6scnc6C)cc5)CC4)CC3)cc2OC)ncc1Cl` (stereo partly drawn) [XL01126, (2S,4R)-1-((R)-3-((((1R,4R)-4-((4-(4-((5-Chloro-4-(methylamino)pyrimidin-2-yl)amino)-3-methoxybenzoyl)piperazin-1-yl)methyl)cyclohexyl)methyl)thio)-2-(1-fluorocyclopropane-1-carboxamido)-3-methylbutanoyl)-4-hydroxy-N-(4-(4-methylthiazol-5-yl)benzyl)pyrrolidine-2-carboxamide], for which the DC50 is 32 nM on WT LRRK2 (4 h) and 14 nM at G2019S LRRK2 (4 h). Further, in the test on Rab10-pThr73 [1] (Mus musculus, 33 nM/4 h, G2019S LRRK2 MEFs, read-out: pRab10 inhibited), the inhibition at 0.033 µM was > 60%. Also, the EC50 was found to be 15 nM with Rab10-pThr73 [1] (setting [3]) and 54 nM with Rab10-pThr73 [2] (Mus musculus, 4 h, WT MEFs, read-out: EC50 WT-pRab10). Moreover, in the test on Rab10-pThr73 [2] (0.3 µM), the “WT-pRab10 percent label at the end” value stood at 94%.
Consider `CNc1nc(Nc2ccc(C(=O)N3CCN(C[C@H]4CC[C@@H](CSC(C)(C)[C@H](NC(=O)C5(F)CC5)C(=O)N5C[C@H](O)CC5C(=O)NCc5ccc(-c6scnc6C)cc5)CC4)CC3)cc2OC)ncc1Cl` (some centres unmarked) [XL01134], for which the Dmax at 0.3 µM at WT LRRK2 (300 nM, read-out: Dmax,WT, time-dependent degradation) came out at 75%. For the same molecule, the values for the DC50 at WT LRRK2 (4 h) and at G2019S LRRK2 (4 h) were 32 nM and 7 nM, respectively. The pRab10 inhibited with Rab10-pThr73 [1] (33 nM/4 h, G2019S LRRK2 MEFs) was > 60%. Also, the IC50 was found to be 12 nM with Rab10-pThr73 [1] (Mus musculus, 4 h, G2019S LRRK2 MEFs, read-out: GS-pRab10 IC50) and 74 nM in the test on Rab10-pThr73 [2] (Mus musculus, 4 h, WT MEFs, read-out: WT-pRab10 IC50). In addition, the maximal degradation (Dmax) on G2019S LRRK2 (4 h, read-out: Dmax,4h (G2019S LRRK2)) was 81%. In the test with Rab10-pThr73 [2] (0.3 µM), the “WT-pRab10 percent label at the end” value amounted to 88%.
Consider `CNc1nc(Nc2ccc(C(=O)N3CCN(C[C@H]4CC[C@H](CSC(C)(C)[C@H](NC(=O)C5(F)CC5)C(=O)N5C[C@@H](O)C[C@H]5C(=O)NCc5ccc(-c6scnc6C)cc5)CC4)CC3)cc2OC)ncc1Cl` [cis-XL01126, (2S,4S)-1-((R)-3-((((1R,4R)-4-((4-(4-((5-Chloro-4-(methylamino)pyrimidin-2-yl)amino)-3-methoxybenzoyl)piperazin-1-yl)methyl)cyclohexyl)methyl)thio)-2-(1-fluorocyclopropane-1-carboxamido)-3-methylbutanoyl)-4-hydroxy-N-(4-(4-methylthiazol-5-yl)benzyl)pyrrolidine-2-carboxamide], for which the “degradation of WT LRRK2 (in words)” value at WT LRRK2 (4 h) is “no degradation”. Besides, the EC50 with Rab10-pThr73 [1] (setting [3]) is 116 nM. For the same molecule, the “degradation of G2019S LRRK2 (in words)” value at G2019S LRRK2 (4 h) is “no degradation”.

For the origin of these results see PMC9501899 (Journal of the American Chemical Society, 2022).
